Results on 4 compounds are retold here after article PMC7898822, “RNA‐PROTACs: Degraders of RNA‐Binding Proteins” (Angewandte Chemie (International Ed. in English), 2020).

Read-outs that look alike come from different tables or passages of the source.

In data set [1] the target is T1, Lin28_ZKD (Homo sapiens, UniProt Q9H9Z2).
T1 construct: construct encoding amino acids 124–186 of human Lin28; His6; made in house; host or cells: Escherichia coli BL21 (DE3) Codon+ (RIL)
T1 sequence (Q9H9Z2 124-186): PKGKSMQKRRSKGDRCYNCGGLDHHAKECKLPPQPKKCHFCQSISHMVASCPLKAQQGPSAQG
The experiment in a line: Fluorescence polarization competition assay (displacement of let7FAM from Lin28_ZKD). The class given is binding. The method, then: Fluorescence Polarization Assay. Fluorescence polarization titration assay was carried out by titrating Lin28_ZKD protein into FAM-labeled PreE-let-7 at a 10 nM final concentration and buffer (10 mM HEPES, 150 mM NaCl, 10 µM ZiCl2, pH 7,4). The assay plate was briefly vortexed, and air bubbles were removed by spinning at 1000 rpm. The fluorescence anisotropy was measured on a Spectra Max Paradigm multimode plate reader (Molecular Devices). The fluorescence polarization competition […]
preE-let-7. The concentration of Lin28_ ZKD is kept at 40 nM, a value in the range of the dissociation constant of Lin28_ZKD and preE-let-7 determined through fluorescence polarization titration assay, whereas preE-let-7 concentration is kept constant at 10 nM. FP competitive binding assays were performed on 384-well plates (#3575, Corning) with a total well volume of 10 µL.
Fluorescence polarization readings were transferred into Prism 7.0 (GraphPad). All fluorescence polarization assays were repeated at least three times and the anisotropy values fitted using GraphPad Prism software using 1:1 binding/inhibition model. […]
On the technique in general: Fluorescence polarisation rises when a labelled molecule tumbles more slowly, as on binding a larger partner.

Data set [2] has as its target T1, Lin28_ZKD. Nature of the data set: NMR 1H-15N HSQC titration of Lin28_ZKD. Type of data set: binding. To be noted: 10 mM HEPES pH 7.0, 303K.
Source text: The oligonucleotide element of an RNA‐PROTAC binds its target RBP via interactions at the riboses and the backbone, as well as the nucleobases. […] Thus, we used the same method to examine how various ribose modifications of L28RBE (Table 1, Figure S1) might affect binding of an RNA‐PROTAC to Lin28_ZKD.
Data set [3] concerns K562 cells. The experiment in a line: Intracellular uptake of FAM-labelled oligonucleotides, fluorescence microscopy. The class given is cell-based, human. The conditions noted are these: FAM-conjugated, 1 µM, 24 h.
In data set [4] the test system is Lin28A. Nature of the data set: Western blot of Lin28A in K562 cells. Type of data set: cell-based, human. To be noted: K562 cells, 48 h, western blot; three independent experiments. The text has this: Finally, we tested RNA‐PROTACs for their ability to degrade their target in two cell lines: the embryonic NT2/D1 cell line, which expresses high levels of Lin28A, ^[13a] and K562 cells which express Lin28A and Lin28B. […] Finally, we co‐treated K562 cells with ORN3P1 and MG132, a reversible inhibitor of the 26S proteasome. […] In order to explore the versatility of RNA‐PROTACs with non peptide‐based VHL ligands, we conjugated small‐molecule VH032 ^[38] to ORN3 via an amino linker to yield ORN3VH032 (Figure S1). […]

Compound `CCCC[C@H](NC(=O)[C@H](C)NC(=O)[C@H](CC(C)C)NC(=O)CCCCCNC(=O)[C@@H](N)CSC1CC(=O)N(CCOP(=O)(S)OC[C@H]2O[C@@H](n3cnc4c(N)ncnc43)[C@H](OC)[C@@H]2OP(=O)(S)OC[C@H]2O[C@@H](n3cnc4c(=O)[nH]c(N)nc43)[C@H](OC)[C@@H]2OP(=O)(S)OC[C@H]2O[C@@H](n3cnc4c(=O)[nH]c(N)nc43)[C@H](OC)[C@@H]2OP(=O)(S)OC[C@H]2O[C@@H](n3cnc4c(N)ncnc43)[C@H](OC)[C@@H]2OP(=O)(S)OC[C@H]2O[C@@H](n3cnc4c(=O)[nH]c(N)nc43)[C@H](OC)[C@@H]2OP(=O)(S)OC[C@H]2O[C@@H](n3cnc4c(N)ncnc43)[C@H](OC)[C@@H]2OP(=O)(S)OC[C@H]2O[C@@H](n3ccc(=O)[nH]c3=O)[C@H](OC)[C@@H]2O)C1=O)C(=O)N[C@@H](Cc1ccc(O)cc1)C(=O)N[C@H](C(=O)O)[C@@H](C)CC` (stereo partly drawn) [ORN4Pcon] returned an IC50 in data set [1] of 206 ± 2.1 nM.
For “ORN7: AGGAGAUAACU, PS-MOE (all 2'-MOE, all phosphorothioate, methylation of C and T or U not given here; further chemistry not fully specified)”, the IC50 in data set [1] (Table 1, 40 nM Lin28_ZKD, 10 nM FAM-preE-let-7, 10 mM HEPES, 150 mM NaCl, pH 7.4, 30 min at 25 °C, 384-well, repeated at least three times, read-out: IC 50 determined by fluorescence polarization) is 162 ± 38 nM. Besides, the “NMR chemical shift perturbation / signal change of Lin28_ZKD” value in data set [2] (1H-15N HSQC, 1:1 ratio) is given as “some of the NMR signals broadened or disappeared”. In data set [2] (at higher concentrations), the “precipitation with Lin28_ZKD in NMR titration” value was “precipitation at higher concentrations was also observed”. In addition, in data set [3], the intracellular localization result is “visible in the cytosol and the nuclei of cells”. Also, in data set [3] (compared with ORN3), the relative uptake entry is “higher than that of ORN3”.
On to `CC[C@H](C)[C@H](NC(=O)[C@H](Cc1ccc(O)cc1)NC(=O)[C@@H]1C[C@@H](O)CN1C(=O)[C@H](C)NC(=O)[C@H](CC(C)C)NC(=O)CCCCCNC(=O)[C@@H](N)CSC1CC(=O)N(CCOP(=O)(S)OC[C@H]2O[C@@H](n3cc(C)c(=O)[nH]c3=O)[C@H](OCCOC)[C@@H]2OP(=O)(S)OC[C@H]2O[C@@H](n3cc(C)c(=O)[nH]c3=O)[C@H](OCCOC)[C@@H]2OP(=O)(S)OC[C@H]2O[C@@H](n3cc(C)c(=O)[nH]c3=O)[C@H](OCCOC)[C@@H]2OP(=O)(S)OC[C@H]2O[C@@H](n3cnc4c(N)ncnc43)[C@H](OCCOC)[C@@H]2OP(=O)(S)OC[C@H]2O[C@@H](n3cc(C)c(=O)[nH]c3=O)[C@H](OCCOC)[C@@H]2OP(=O)(S)OC[C@H]2O[C@@H](n3cc(C)c(=O)[nH]c3=O)[C@H](OCCOC)[C@@H]2OP(=O)(S)OC[C@H]2O[C@@H](n3cnc4c(=O)[nH]c(N)nc43)[C@H](OCCOC)[C@@H]2O)C1=O)C(=O)O` (stereo partly drawn) [ORN5P1], for which, in data set [1] (displacement of let7FAM from Lin28_ZKD), the “activity in FP competition assay (in words)” value was “weak effect on Lin28_ZKD”. In addition, the “Lin28A suppression (in words)” value in data set [4] is “inactive”.
In data set [1], `CC[C@H](C)[C@H](NC(=O)[C@H](Cc1ccc(O)cc1)NC(=O)[C@@H]1C[C@@H](O)CN1C(=O)[C@H](C)NC(=O)[C@H](CC(C)C)NC(=O)CCCCCNC(=O)[C@@H](N)CSC1CC(=O)N(CCOP(=O)(S)OC[C@H]2O[C@@H](n3cnc4c(N)ncnc43)[C@H](OC)[C@@H]2OP(=O)(S)OC[C@H]2O[C@@H](n3cnc4c(=O)[nH]c(N)nc43)[C@H](OC)[C@@H]2OP(=O)(S)OC[C@H]2O[C@@H](n3cnc4c(=O)[nH]c(N)nc43)[C@H](OC)[C@@H]2OP(=O)(S)OC[C@H]2O[C@@H](n3cnc4c(N)ncnc43)[C@H](OC)[C@@H]2OP(=O)(S)OC[C@H]2O[C@@H](n3cnc4c(=O)[nH]c(N)nc43)[C@H](OC)[C@@H]2OP(=O)(S)OC[C@H]2O[C@@H](n3cnc4c(N)ncnc43)[C@H](OC)[C@@H]2OP(=O)(S)OC[C@H]2O[C@@H](n3ccc(=O)[nH]c3=O)[C@H](OC)[C@@H]2O)C1=O)C(=O)O` (stereo partly drawn) [ORN4P1] displayed an IC50 of 208 ± 27.4 nM.
